Results from patent US8193225B2, “Isoxazole amides, derivatives and methods of chemical induction of neurogenesis” (priority 2006, dated 2012).

What was measured:
HCN cells = test: RT-PCR and protein blotting of gene expression in HCN cells; format: cell-based, rat
P19CL6 cells = test: neuronal differentiation of P19CL6 cells; format: cell-based, mouse; conditions: 4 d cultures
Method: Neural stem cell culture, in vitro differentiation, and CaMK inhibitor studies. The hippocampal neural stem/progenitor (NSC) line used in this study (HCN cells) were originally isolated from adult (8-10 wks old) female Fisher 344 rats and have been characterized previously (Gage et al., 1995; Palmer et al., 1997). HCN cells were cultured in DMEM:F12 (Omega Scientific) with N2 supplement (Invitrogen) and basic fibroblast growth factor (20 ng/ml FGF-2) (PeproTech). The mouse whole brain neural stem/progenitors (MWB) were derived from adult (8-10 wks old) C57BL/6 mice that have been characterized previously (Ray and Gage, 2006). The P19CL6 cells is a sub-line of P19EC cells, originally generated by the late Dr. Habara-Ohkubo (Habara-Ohkubo, 1996), were grown in MEM-α (Invitrogen) containing 10% fetal bovine serum (Omega). HCN cells or MWB neural progenitors were trypsinized and plated into N2 medium (Invitrogen) containing FGF-2 (HCN cells) or FGF-2/EGF/heparin (MWB) overnight, and switched to fresh N2 medium without FGF-2 and Isx-9 (20 μM for HCN cells and 5 μM for MWB) was added for 4 d. To test if Isx-9 could block competing astrocyte or oligodendrocyte differentiation, standard gliogenic conditions were used as described previously (Hsieh et al., 2004). […]

[1] = test system: human CD133(+) brain tumor stem cells (BTSCs); test: growth, secondary neurospheres and BrdU uptake of BTSCs; format: cell-based
Method: CD133(+) brain tumor stem cells (BTSCs) from an explanted human tumor specimen were treated with EGF/FGF (FIG. 10A) or Isx-9 (20 μM) (FIG. 10B) for 7 days before returning to EGF/FGF (FIG. 10C) or EGF/FGF plus Isx-9 conditions (FIG. 10D) for an additional 2 days.
The number and size of neurospheres observed in 7-day pretreated BTSCs with DMSO (vehicle), EGF/FGF, or Isx-9 that were dissociated and re-plated to form secondary neurospheres (1000 cells/well) under various conditions is shown in FIG. 10F.

[2] = test system: NMDA receptor 1-(NR1) luciferase; test: NMDA receptor 1 (NR1)-luciferase reporter in BTSCs; format: cell-based, human; conditions: after 24 hours, compared to vehicle
Method: (§1) CD133+ glioblastoma brain tumor stem cells (BTSCs) from an explanted human tumor specimen were treated with 20 μM Isx-9 (FIG. 9C) or vol/vol DMSO (vehicle) control (FIG. 9B).

NeuroD-luciferase = NeuroD-luciferase reporter in BTSCs; format: cell-based, human; conditions: after 24 hours, compared to vehicle
Method: as §1

[3] = test system: human CD133(+) brain tumor stem cells (BTSCs); test: RT-PCR and protein blotting of gene expression in BTSCs; format: cell-based
Text: FIGS. 9A-H—Isoxazoles specifically target the CD133(+) glioblastoma cancer stem cell to adopt a neuronal fate program. […] (FIG. 9B) BTSCs cultured with DMSO (vehicle) (1% vol./vol.). (FIG. 9D) Isx-9-treated BTSCs stained with neuronal markers Tuj1 (red) and Map2ab (green), Dapi-stained nuclei is blue. Scale bar=25 μm. […] (FIGS. 9G and 9H) RT-PCR and protein blotting analysis of gene expression in Isx-9-treated BTSCs. […] GAPDH is used as a normalization control.
This activity remained following addition of FGF/EGF without additional Isx-9 addition.

O=C(NC1CC1)c1cc(-c2cccs2)on1 [Isx-9, N-cyclopropyl-5-(thiophen-2-yl)isoxazole-3-carboxamide]
MEF2 mRNA levels (HCN cells; 2- and 4-days, compared to vehicle): up-regulated
expression of SOX2 (HCN cells; HCN cells): decreased expression
neuronal protein expression (protein blotting) (HCN cells; HCN cells/NPCs): increased Tuj1 protein
MEF2A and MEF2C protein levels (HCN cells; protein blotting time-course, up to 64 hours): unchanged
neuronal differentiation of P19CL6 / P19 embryonal carcinoma cells (P19CL6 cells): promotes neuronal differentiation
cell attachment and differentiation of BTSCs after growth factor challenge ([1]; 7-day exposure, 20 μM): promotes an irreversible state of cell attachment and differentiation
number and size of secondary neurospheres ([1]; 7-day pre-treatment, compared to EGF/FGF pre-treatment): mediates a decrease in the average number and size of each secondary neurosphere
DNA synthesis/proliferation (BrdU uptake) of BTSCs ([1]; 7 days pre-treatment, EGF/FGF added back for 24 hours): leads to decreased DNA synthesis/proliferation
activation of NR1-luciferase in BTSCs [2]: Dose-dependent activation
activation of NeuroD-luciferase in BTSCs (NeuroD-luciferase): Dose-dependent activation
CD133 expression in BTSCs [3]: downregulated
HDAC-4 and -5 protein in BTSCs [3]: remain relatively unchanged
NRSF expression in BTSCs [3]: downregulated
NeuroD expression in BTSCs ([3]; 2 days): Up-regulation of NeuroD
overall levels of neuronal proteins (βTujIII, GluR2) in BTSCs ([3]; versus control): do not significantly differ
